Reference: patent US20240425478A1, “CYCLOPENTYLPYRAZOLE CDK2 INHIBITORS” (Genentech, Inc., priority 2021, published 2024)
Like-named read-outs stand apart in the source and are kept apart here.

How the values were obtained:
[1] = test system: OVISE (JCRB1043, CCNE1-amplified); assay: OVISE EdU incorporation cell proliferation assay (CDK2-dependent); type: cell-based; conditions: for IC50: cellular assay, read-out: CDK2 OVISE IC50; for FS SKOV-3/OVISE: fold selectivity; for improvement in CDK2 OVISE cell potency over Comparator C: in brackets after OVISE IC50, Comparator C 5.5 μM; for increased fold-selectivity SKOV-3/OVISE over Comparator C: (+) sign after FS SKOV-3/OVISE
Procedure, shortened: (§1)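 EdU incorporation (0.5 μM final, last 8 h) follows a 16 h compound exposure at 37 °C, 5% CO2 in RPMI plus 10% FBS, 0.5% DMSO. After fixation, imaging scores EdU-positive cells; a 4-parameter logistic fit of that fraction gives IC50.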

[2] = biological target: T1, Cyclin Dependent Kinase 1/Cyclin A2 (CDK1-cycA2) (Homo sapiens, UniProt P06493); assay: CDK1-cycA2 TR-FRET (Lance) enzyme assay; type: biochemical; conditions: for Ki: enzymatic assay
T1 construct: purchased ProQinase 0134-0054-1
Procedure, shortened: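 TR-FRET (Lance) detection of phospho-4E-BP1 with a europium-labelled antibody after EDTA quench (15 mM final); signal taken as acceptor/donor ratio. Enzyme and compound were pre-incubated 30 min in HEPES pH 7.5 buffer with MgCl2, TCEP, BGG and Brij 35. Ki derived by Morrison fit.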

[3] = biological target: T2, Cyclin Dependent Kinase 4/Cyclin D3 (CDK4-cycD3) (Homo sapiens, UniProt P11802); assay: CDK4-cycD3 TR-FRET (LANCE) enzyme assay; type: biochemical; conditions: for Ki: enzymatic assay
T2 construct: purchased Carna Biosciences 04-105
Procedure, shortened: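 Compound dose responses pre-incubated 30 min with enzyme mix in 50 mM HEPES pH 7.5, 10 mM MgCl2, 2 mM TCEP, 0.05% BGG, 0.01% Brij 35. Reaction quenched with EDTA (15 mM final); Eu-anti-phospho-4E-BP1 TR-FRET detection, acceptor/donor ratio. Ki derived by Morrison equation.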

[4] = biological target: T3, Cyclin Dependent Kinase 2/Cyclin E1 (CDK2-cycE1) (Homo sapiens, UniProt P24941); assay: CDK2-cycE1 TR-FRET (LANCE) enzyme assay; type: biochemical; conditions: for FS CDK1/CDK2 / FS CDK4/CDK2: fold selectivity; for increased fold-selectivity CDK4/CDK2 over Comparator C: (+) sign after FS CDK4/CDK2;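 for improvement in potency against CDK2 (Ki) over Comparator C: fold lower CDK2 Ki than comparator c (Ki 0.032 µM)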
T3 construct: purchased ProQinase 0050-0055-1
Procedure, shortened: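 Kinase reaction buffer: 50 mM HEPES pH 7.5, 10 mM MgCl2, 2 mM TCEP, 0.05% BGG, 0.01% Brij 35, with 30 min compound–enzyme pre-incubation.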

[5] = test system: SKOV-3 (ATCC HTB-77); assay: SKOV-3 EdU incorporation cell proliferation assay (CDK4/6-dependent); type: cell-based; conditions: for IC50: Homo sapiens, cellular assay, read-out: CDK4/6 SKOV-3 IC50
Procedure, shortened: as §1

[6] = Table S, fold selectivity, enzymatic Ki ratio
[7] = read-out: CDK2 activity / potency (enzymatic assay)
[8] = Table O, cellular SKOV-3 IC50 over OVISE IC50
[9] = Table O, enzymatic assay, read-out: CDK2 Ki
[10] = Table O, enzymatic CDK1 Ki over CDK2 Ki
[11] = Table O, enzymatic CDK4 Ki over CDK2 Ki
[12] = Table Q, enzymatic assay, read-out: CDK2 Ki

T2 sequence (P11802 whole entry): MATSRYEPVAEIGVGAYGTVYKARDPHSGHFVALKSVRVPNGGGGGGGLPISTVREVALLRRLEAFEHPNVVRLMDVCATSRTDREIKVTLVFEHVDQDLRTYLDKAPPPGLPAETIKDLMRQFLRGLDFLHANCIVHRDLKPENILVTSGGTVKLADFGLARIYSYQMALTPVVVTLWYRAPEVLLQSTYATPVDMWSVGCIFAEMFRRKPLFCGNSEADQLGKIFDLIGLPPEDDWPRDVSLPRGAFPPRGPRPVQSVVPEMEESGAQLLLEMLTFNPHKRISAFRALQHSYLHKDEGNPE
T2 sequence (P30281 whole entry partner): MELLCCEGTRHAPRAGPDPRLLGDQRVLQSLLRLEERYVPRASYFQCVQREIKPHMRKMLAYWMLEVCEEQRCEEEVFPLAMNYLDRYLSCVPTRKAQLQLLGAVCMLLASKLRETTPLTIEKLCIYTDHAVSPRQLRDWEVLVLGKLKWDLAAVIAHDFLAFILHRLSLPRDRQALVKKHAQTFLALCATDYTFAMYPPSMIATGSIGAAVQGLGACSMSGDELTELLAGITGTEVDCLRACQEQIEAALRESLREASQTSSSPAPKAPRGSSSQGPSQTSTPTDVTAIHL
T1 sequence (P06493 whole entry): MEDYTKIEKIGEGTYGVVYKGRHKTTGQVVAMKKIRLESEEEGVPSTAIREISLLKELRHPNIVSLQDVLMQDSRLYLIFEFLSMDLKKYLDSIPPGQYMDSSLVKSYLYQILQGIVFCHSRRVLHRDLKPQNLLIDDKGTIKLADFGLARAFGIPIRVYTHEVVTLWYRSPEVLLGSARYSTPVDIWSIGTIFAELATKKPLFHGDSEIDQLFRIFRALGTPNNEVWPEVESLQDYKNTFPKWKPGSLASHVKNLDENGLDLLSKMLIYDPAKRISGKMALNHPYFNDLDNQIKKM
T1 sequence (P20248 whole entry partner): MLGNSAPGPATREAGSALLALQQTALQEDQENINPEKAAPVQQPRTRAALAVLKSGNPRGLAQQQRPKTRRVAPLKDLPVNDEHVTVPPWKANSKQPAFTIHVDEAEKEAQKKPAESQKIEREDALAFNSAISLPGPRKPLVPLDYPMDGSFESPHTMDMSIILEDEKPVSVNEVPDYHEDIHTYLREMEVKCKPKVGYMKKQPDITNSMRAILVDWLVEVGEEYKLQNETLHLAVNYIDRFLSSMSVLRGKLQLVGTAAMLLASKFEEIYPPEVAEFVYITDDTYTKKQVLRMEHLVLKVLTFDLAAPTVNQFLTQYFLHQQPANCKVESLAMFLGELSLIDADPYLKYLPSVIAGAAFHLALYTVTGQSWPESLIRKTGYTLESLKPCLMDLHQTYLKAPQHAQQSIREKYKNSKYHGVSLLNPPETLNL

CC(C)(C)NC(=O)O[C@@H]1CC[C@H](c2cc(Nc3ccccc3)n[nH]2)C1 [Comparator E, (1R,3S)-3-(3-(phenylamino)-1H-pyrazol-5-yl)cyclopentyl tert-butylcarbamate, reference compound]
IC50 ([1]; Table S): 170 nM
Ki ([2]; Table S): 33 nM
FS CDK1/CDK2 [2, 6]: 63
Ki ([3]; Table S): 23 nM
FS CDK4/CDK2 [3, 6]: 44
Ki ([4]; Table S, enzymatic assay, read-out: CDK2 Ki): 0.52 nM
Ki [4, 7]: 0.52 nM
IC50 ([5]; SK-OV-3, Table S): 2700 nM
FS SKOV-3/OVISE ([5]; Table S, fold selectivity, cellular IC50 ratio): 16

CC[C@H](C)NC(=O)O[C@@H]1CC[C@H](c2cc(Nc3cccnn3)n[nH]2)C1 (single isomer, unassigned) [Example 3B]
IC50 ([1]; Table O): 570 nM
FS SKOV-3/OVISE [1, 8]: 18
Ki ([2]; Table O): 200 nM
Ki ([3]; Table O): 290 nM
Ki [4, 9]: 8.5 nM
FS CDK1/CDK2 [4, 10]: 24
FS CDK4/CDK2 [4, 11]: 34
IC50 ([5]; SK-OV-3, Table O): 10000 nM

Cc1cnccc1Nc1cc([C@H]2CC[C@@H](OC(=O)NC34CC(C3)C4)C2)[nH]n1 [Example 9G, (1R,3S)-3-(3-((3-methylpyridin-4-yl)amino)-1H-pyrazol-5-yl)cyclopentyl bicyclo[1.1.1]pentan-1-ylcarbamate]
IC50 ([1]; Table O): 340 nM
FS SKOV-3/OVISE [1, 8]: 44
Ki ([2]; Table O): 770 nM
Ki ([3]; Table O): 1300 nM
Ki [4, 9]: 12 nM
FS CDK1/CDK2 [4, 10]: 64
FS CDK4/CDK2 [4, 11]: 110
IC50 ([5]; SK-OV-3, Table O): 15000 nM

Cc1cc(=O)n(C)cc1Nc1cc([C@H]2CC[C@@H](OC(=O)NC(C)C)C2)[nH]n1 [Example 2S, (1R,3S)-3-(3-((1,4-dimethyl-6-oxo-1,6-dihydropyridin-3-yl)amino)-1H-pyrazol-5-yl)cyclopentyl isopropylcarbamate]
IC50 ([1]; Table O): > 20000 nM
FS SKOV-3/OVISE [1, 8]: 1.0
IC50 ([1]; Table Q): > 20000 nM
FS SKOV-3/OVISE ([1]; Table Q, cellular): 1.0
improvement in CDK2 OVISE cell potency over Comparator C ([1]; Table Q): 0.28 fold
Ki ([2]; Table O): 7400 nM
Ki ([3]; Table O): 12000 nM
Ki [4, 9]: 890 nM
FS CDK1/CDK2 [4, 10]: 8.3
FS CDK4/CDK2 [4, 11]: 13
increased fold-selectivity CDK4/CDK2 over Comparator C ([4]; Table Q): (+) (The (+) sign in Table Q signifies desirable increased fold-selectivity of the exemplary compounds over Comparator C)
Ki [4, 12]: 890 nM
FS CDK1/CDK2 ([4]; Table Q, enzymatic): 8.3
FS CDK4/CDK2 ([4]; Table Q, enzymatic): 13
improvement in potency against CDK2 (Ki) over Comparator C ([4]; Table Q, in brackets after CDK2 Ki, Comparator C 0.032 μM): 0.4 fold
IC50 ([5]; SK-OV-3, Table O): > 20000 nM
IC50 ([5]; SK-OV-3, Table Q): > 20000 nM

CC(C)NC(=O)O[C@@H]1CC[C@H](c2cc(Nc3cc(=O)[nH]cn3)n[nH]2)C1 [Example 2CC, (1R,3S)-3-(3-((6-oxo-1,6-dihydropyrimidin-4-yl)amino)-1H-pyrazol-5-yl)cyclopentyl isopropylcarbamate]
IC50 ([1]; Table O): 2000 nM
FS SKOV-3/OVISE [1, 8]: >10
increased fold-selectivity SKOV-3/OVISE over Comparator C ([1]; Table Q): (+) (The (+) sign in Table Q signifies desirable increased fold-selectivity of the exemplary compounds over Comparator C)
FS SKOV-3/OVISE ([1]; Table Q, cellular): > 10
improvement in CDK2 OVISE cell potency over Comparator C ([1]; Table Q): 2.8 fold
Ki ([2]; Table O): 34 nM
Ki ([3]; Table O): 130 nM
improvement in potency against CDK2 (Ki) over Comparator C [4]: 97 fold
Ki [4, 9]: 0.33 nM
FS CDK1/CDK2 [4, 10]: 100
FS CDK4/CDK2 [4, 11]: 390
increased fold-selectivity CDK1/CDK2 over Comparator C ([4]; Table Q, (+) sign after FS CDK1/CDK2): (+) (The (+) sign in Table Q signifies desirable increased fold-selectivity of the exemplary compounds over Comparator C)
increased fold-selectivity CDK4/CDK2 over Comparator C ([4]; Table Q): (+) (The (+) sign in Table Q signifies desirable increased fold-selectivity of the exemplary compounds over Comparator C)
Ki [4, 12]: 0.33 nM
FS CDK1/CDK2 ([4]; Table Q, enzymatic): 100
FS CDK4/CDK2 ([4]; Table Q, enzymatic): 390
Ki [4, 7]: ≤ 1 nM
IC50 ([5]; SK-OV-3, Table O): > 20000 nM
IC50 ([5]; SK-OV-3, Table Q): > 20000 nM

CC(C)NC(=O)O[C@@H]1CC[C@H](c2cc(Nc3cncc(N(C)C)n3)n[nH]2)C1 [Example 2P, (1R,3S)-3-(3-((6-(dimethylamino)pyrazin-2-yl)amino)-1H-pyrazol-5-yl)cyclopentyl isopropylcarbamate]
IC50 ([1]; Table O): 370 nM
FS SKOV-3/OVISE [1, 8]: 14
increased fold-selectivity SKOV-3/OVISE over Comparator C ([1]; Table Q): (+) (The (+) sign in Table Q signifies desirable increased fold-selectivity of the exemplary compounds over Comparator C)
FS SKOV-3/OVISE ([1]; Table Q, cellular): 14
improvement in CDK2 OVISE cell potency over Comparator C ([1]; Table Q): 14.9 fold
Ki ([2]; Table O): 33 nM
Ki ([3]; Table O): 180 nM
improvement in potency against CDK2 (Ki) over Comparator C [4]: 8 fold
Ki [4, 9]: 4.2 nM
FS CDK1/CDK2 [4, 10]: 7.9
FS CDK4/CDK2 [4, 11]: 43
increased fold-selectivity CDK4/CDK2 over Comparator C ([4]; Table Q): (+) (The (+) sign in Table Q signifies desirable increased fold-selectivity of the exemplary compounds over Comparator C)
Ki [4, 12]: 4.2 nM
FS CDK1/CDK2 ([4]; Table Q, enzymatic): 7.9
FS CDK4/CDK2 ([4]; Table Q, enzymatic): 43
IC50 ([5]; SK-OV-3, Table O): 5300 nM
IC50 ([5]; SK-OV-3, Table Q): 5300 nM

Cc1ncccc1Nc1cc([C@H]2CC[C@@H](OC(=O)N[C@@H]3CCN(C)C3)C2)[nH]n1 [Example 7B, (1R,3S)-3-(3-((2-methylpyridin-3-yl)amino)-1H-pyrazol-5-yl)cyclopentyl ((R)-1-methylpyrrolidin-3-yl)carbamate]
IC50 ([1]; Table O): 17000 nM
FS SKOV-3/OVISE [1, 8]: >1.2
Ki ([2]; Table O): 3300 nM
Ki ([3]; Table O): 6500 nM
Ki [4, 9]: 300 nM
FS CDK1/CDK2 [4, 10]: 11
FS CDK4/CDK2 [4, 11]: 22
IC50 ([5]; SK-OV-3, Table O): > 20000 nM

CC[C@@H](C)NC(=O)O[C@@H]1CC[C@H](c2cc(Nc3cccnn3)n[nH]2)C1 (single isomer, unassigned) [Example 3C]
IC50 ([1]; Table O): 390 nM
FS SKOV-3/OVISE [1, 8]: 31
Ki ([2]; Table O): 500 nM
Ki ([3]; Table O): 430 nM
Ki [4, 9]: 18 nM
FS CDK1/CDK2 [4, 10]: 28
FS CDK4/CDK2 [4, 11]: 24
IC50 ([5]; SK-OV-3, Table O): 12000 nM

COc1nc(C)ncc1Nc1cc([C@H]2CC[C@@H](OC(=O)NC(C)C)C2)[nH]n1 [Example 2Y, (1R,3S)-3-(3-((4-methoxy-2-methylpyrimidin-5-yl)amino)-1H-pyrazol-5-yl)cyclopentyl isopropylcarbamate]
IC50 ([1]; Table O): 16000 nM
FS SKOV-3/OVISE [1, 8]: >1.3
FS SKOV-3/OVISE ([1]; Table Q, cellular): >1.3
improvement in CDK2 OVISE cell potency over Comparator C ([1]; Table Q): 0.18 fold
Ki ([2]; Table O): 7500 nM
Ki ([3]; Table O): 49000 nM
improvement in potency against CDK2 (Ki) over Comparator C [4]: 0.15 fold
Ki [4, 9]: 210 nM
FS CDK1/CDK2 [4, 10]: 36
FS CDK4/CDK2 [4, 11]: 230
increased fold-selectivity CDK4/CDK2 over Comparator C ([4]; Table Q): (+) (The (+) sign in Table Q signifies desirable increased fold-selectivity of the exemplary compounds over Comparator C)
Ki [4, 12]: 210 nM
FS CDK1/CDK2 ([4]; Table Q, enzymatic): 36
FS CDK4/CDK2 ([4]; Table Q, enzymatic): 230
IC50 ([5]; SK-OV-3, Table O): > 20000 nM
IC50 ([5]; SK-OV-3, Table Q): > 20000 nM
